# Values of other authors in patent US6551611B2, “Hormone replacement therapy method” (Schering Aktiengesellschaft, priority 1995, dated 2003).
# Conditions: oral administration
compound,measurement,value
C[C@]12CC[C@@H]3c4ccc(O)cc4CC[C@H]3[C@@H]1CC[C@@H]2O [estradiol],"bioavailability of estradiol orally, average",5 % of the oral dose
